# Laboratory results reported in patent publication US20230310388A1, “Methods and Compositions for Treating Fungal Infections” (Neoculi Pty Ltd, priority 2020, published 2023).
# Several values for one entry are separate records, joined by “and”; a condition that tells them apart may be missing. Equal values may be shown once.
# System: Candida albicans ATCC14053
# Assay: Broth micro-dilution screen at 16 μg/mL and MIC (Example 9)
# Format: cell-based
# Settings: C. albicans ATCC14053; test range 0.25-64 μg/mL; duplicate
# Experimental: The antifungal activity of 201 NCL analogs against Candida albicans ATCC14053 in vitro was investigated. A broth micro-dilution method was used, according to CLSI guidelines as described. NCL analogs were dissolved in DMSO and originally screened at a single concentration of 16 μg/mL.
row,MIC,Compound
1,2 µg/mL and 4 µg/mL,Cl.N=C(NN=Cc1ccc(O)c(O)c1O)NN=Cc1ccc(O)c(O)c1O [NCL105]
2,2 µg/mL and 4 µg/mL,Cc1ccc(C=NNC(=N)NN=Cc2ccc(C)cc2)cc1.Cl [NCL038]
3,1 µg/mL and 2 µg/mL,CSc1ccc(C=NNC(=N)NN=Cc2ccc(SC)cc2)cc1.Cl [NCL140]
4,4 µg/mL,C#Cc1cccc(C=NNC(=N)NN=Cc2cccc(C#C)c2)c1.Cl [NCL126]
5,16 µg/mL and 32 µg/mL,Nc1nc(NN=Cc2ccc(O)c(O)c2)cc(NN=Cc2ccc(O)c(O)c2)n1 [NCL243]
6,>64 µg/mL,Cl.N=C(NN=Cc1ccc(Cl)cc1F)NN=Cc1ccc(Cl)cc1F [NCL216]
7,4 µg/mL and 8 µg/mL,CCCc1ccc(C=NNC(=N)NN=Cc2ccc(CCC)cc2)cc1.Cl [NCL121]
8,1 µg/mL,Cl.N=C(NN=Cc1ccc(F)c(F)c1)NN=Cc1ccc(F)c(F)c1 [NCL123]
9,2 µg/mL and 4 µg/mL,Cl.N=C(NN=Cc1ccccc1O)NN=Cc1ccccc1O [NCL107]
10,4 µg/mL,CC(=NNC(=N)NN=C(C)c1c[nH]c2ccccc12)c1c[nH]c2ccccc12 [NCL268]
11,<1 µg/mL,Cl.N=C(NN=Cc1ccc(Br)cc1)NN=Cc1ccc(Br)cc1 [NCL134]
12,>64 µg/mL,NC(=NN=Cc1ccc(Cl)cc1)N(N=Cc1ccc(Cl)cc1)C(=O)NCc1ccccc1 [NCL227]

# Same assay, conditions: single concentration 16 μg/mL; Growth or No growth of C. albicans ATCC14053
row,Compound,Screen at 16 μg/mL
1,Cl.N=C(NN=Cc1ccc(O)c(O)c1O)NN=Cc1ccc(O)c(O)c1O [NCL105],No growth
2,Cc1ccc(C=NNC(=N)NN=Cc2ccc(C)cc2)cc1.Cl [NCL038],No growth
3,Nc1nc(NN=Cc2cccnc2)cc(NN=Cc2cccnc2)n1 [NCL239],Growth
4,CCOCC(=NNC(=N)NN=C(COCC)c1ccc(Cl)cc1)c1ccc(Cl)cc1 [NCL275],Growth
5,Cc1cccc(C=NNC(=N)NN=Cc2cccc(C)c2O)c1O.Cl [NCL152],Growth
6,Cl.OCC(=NNc1cc(NN=C(CO)c2ccc(Cl)cc2)ncn1)c1ccc(Cl)cc1 [NCL189],Growth
7,Clc1ccc(CNCCCCNCc2ccc(Cl)cc2)cc1 [NCL258],Growth
8,Cl.N=C(NN=Cc1ccncc1)NN=Cc1ccncc1 [NCL149],Growth
9,Nc1nc(NN=CC2CCCCC2)nc(NN=CC2CCCCC2)n1 [NCL213],Growth
10,CC(Nc1cc(NC(C)c2ccccc2)nc(N)n1)c1ccccc1 (centres unmarked) [NCL184],Growth
11,Nc1nc(NN=Cc2ccc(Br)cc2)cc(NN=Cc2ccc(Br)cc2)n1 [NCL193],Growth
12,CC(C)COC(=O)N(N=Cc1ccc(Cl)cc1)C(N)=NN=Cc1ccc(Cl)cc1 [NCL225],Growth
13,Cl.N=C(N)N/N=C/c1ccc(C(F)(F)F)cc1 [NCL041],Growth
14,Cl.N=C(NN=Cc1cc(Br)co1)NN=Cc1cc(Br)co1 [NCL133],Growth
15,Cl.Clc1ccc(/C=N/Nc2cc(N/N=C/c3ccc(Cl)cc3)ncn2)cc1 [NCL187],Growth
16,Cl.N=C(NN=Cc1ccccc1Br)NN=Cc1ccccc1Br [NCL129],Growth
17,Cl.N=C(NN=Cc1ccc(C=CC(=O)O)cc1)NN=Cc1ccc(C=CC(=O)O)cc1 [NCL148],Growth
18,Cl.N=C(NN=Cc1ccc2nsnc2c1)NN=Cc1ccc2nsnc2c1 [NCL277],Growth
19,Cl.N=C(NN=CC=Cc1ccccc1)NN=CC=Cc1ccccc1 [NCL096],Growth
20,Nc1nc(NN=Cc2ccccc2O)nc(NN=Cc2ccccc2O)n1 [NCL207],Growth
21,CCCCC(=NNC(=N)N)c1ccc(Cl)cc1.Cl [NCL188],Growth
22,Cl.N=C(NN=Cc1cccc(C(F)(F)F)c1)NN=Cc1cccc(C(F)(F)F)c1 [NCL037],Growth

row,Compound,Screen at 16 μg/mL
1,Nc1nc(NN=Cc2ccc(O)cc2)nc(NN=Cc2ccc(O)cc2)n1 [NCL211],Growth
2,CC(C)c1ccc(C=NNC(=N)NN=Cc2ccc(C(C)C)cc2)cc1.Cl [NCL120],Growth
3,NC(=NN=Cc1ccc(Cl)cc1)N(N=Cc1ccc(Cl)cc1)C(=O)NCc1ccco1 [NCL229],Growth
4,Cl.N=C(N)NN=Cc1ccccc1F [NCL016],Growth
5,Nc1nc(NN=Cc2ccccc2Cl)cc(NN=Cc2ccccc2Cl)n1 [NCL205],Growth
6,Cl.Cl.Nc1nc(NN=CC2CCCCC2)cc(NN=CC2CCCCC2)n1 [NCL203],Growth
7,CC(=NNC(=N)NN=C(C)c1ccc(C(F)(F)F)cc1)c1ccc(C(F)(F)F)cc1.Cl [NCL061],Growth
8,Cc1ccccc1C=NNC(=N)N.Cl [NCL045],Growth
9,Nc1nc(NN=CC=Cc2ccccc2)cc(NN=CC=Cc2ccccc2)n1 [NCL246],Growth
10,N=C(N)NN=Cc1cccc2ccccc12 [NCL248],Growth
11,CSc1ccc(C=NNC(=N)NN=Cc2ccc(SC)cc2)cc1.Cl [NCL140],No growth
12,O=C(NN=Cc1cccc(C(F)(F)F)c1)NN=Cc1cccc(C(F)(F)F)c1 [NCL011],Growth
13,Nc1nc(NN=Cc2ccccc2)nc(NN=Cc2ccccc2)n1 [NCL214],Growth
14,Cl.N=C(NN=Cc1ccccc1)NN=Cc1ccccc1 [NCL100],Growth
15,O=C(NN=Cc1ccccc1Cl)NN=Cc1ccccc1Cl [NCL002],Growth
16,Cl.N=C(NN=Cc1ccc(O)cc1)NN=Cc1ccc(O)cc1 [NCL151],Growth
17,N=C(N)NN=C(CC1CCCCC1)c1ccc(Cl)cc1O [NCL237],Growth
18,Nc1nc(NN=Cc2ccncc2)cc(NN=Cc2ccncc2)n1 [NCL241],Growth
19,Cl.N=C(N)NN=Cc1ccc2ccccc2c1 [NCL261],Growth
20,Cl.N=C(NN=Cc1cc(O)c(O)cc1O)NN=Cc1cc(O)c(O)cc1O [NCL104],Growth
21,CCC(=NNC(=N)NN=C(CC)c1ccc(Cl)cc1)c1ccc(Cl)cc1.Cl [NCL153],Growth
22,Cl.N=C(NN=Cc1ccc(Br)o1)NN=Cc1ccc(Br)o1 [NCL144],Growth

row,Compound,Screen at 16 μg/mL
1,CCCCc1ccc(C=NNC(=N)NN=Cc2ccc(CCCC)cc2)cc1.Cl [NCL136],Growth
2,C#Cc1cccc(C=NNC(=N)NN=Cc2cccc(C#C)c2)c1.Cl [NCL126],No growth
3,Nc1nc(NN=Cc2ccc(O)c(O)c2)cc(NN=Cc2ccc(O)c(O)c2)n1 [NCL243],No growth
4,COc1cccc(C=NNC(=N)NN=Cc2cccc(OC)c2)c1.Cl [NCL029],Growth
5,Cl.N=C(NN=Cc1ccc(Cl)cc1F)NN=Cc1ccc(Cl)cc1F [NCL216],Growth
6,CCCc1ccc(C=NNC(=N)NN=Cc2ccc(CCC)cc2)cc1.Cl [NCL121],No growth
7,Nc1nc(NN=Cc2ccc(Cl)cc2)cc(NN=Cc2ccc(Cl)cc2)n1 [NCL179],Growth
8,CC(=NNC(=N)NN=C(C)c1ccc(Cl)cc1F)c1ccc(Cl)cc1F.Cl [NCL215],Growth
9,Cl.N=C(NN=Cc1ccc2ncccc2c1)NN=Cc1ccc2ncccc2c1 [NCL282],No growth
10,Cl.N#Cc1ccc(C=NNC(=N)N)cc1 [NCL031],Growth
11,Nc1nc(NN=Cc2ccc(O)cc2O)cc(NN=Cc2ccc(O)cc2O)n1 [NCL256],Growth
12,COc1cc(C=NNC(=N)NN=Cc2cc(O)c(O)c(OC)c2)cc(O)c1O.Cl [NCL106],Growth
13,Cl.N=C(N)NN=Cc1ccccc1C(F)(F)F [NCL042],Growth
14,COc1cc(C=NNC(=N)NN=Cc2cc(Br)c(OC)c(OC)c2)cc(Br)c1OC.Cl [NCL130],Growth
15,CCC(=NNC(=N)N)c1ccc(Cl)cc1 [NCL234],Growth
16,Cl.N=C(NN=Cc1cccc(O)c1)NN=Cc1cccc(O)c1 [NCL108],Growth
17,N=C(N)NN=CC=Cc1ccccc1 [NCL249],Growth
18,CC(=NNC(=N)NN=C(C)c1ccccc1)c1ccccc1.Cl [NCL143],Growth
19,Cl.N=C(NN=Cc1ccc(F)c(F)c1)NN=Cc1ccc(F)c(F)c1 [NCL123],No growth
20,CCCCCCCC(=NNC(=N)NN=C(CCCCCCC)c1ccc(Cl)cc1)c1ccc(Cl)cc1 [NCL272],Growth
21,Cc1cccc(C=NNC(=O)NN=Cc2cccc(C)c2)c1 [NCL019],Growth
22,Cl.N=C(NN=Cc1ccccc1C(F)(F)F)NN=Cc1ccccc1C(F)(F)F [NCL036],Growth

row,Compound,Screen at 16 μg/mL
1,Cl.N=C(NN=Cc1ccccc1O)NN=Cc1ccccc1O [NCL107],No growth
2,Nc1nc(NN=Cc2ccccc2O)cc(NN=Cc2ccccc2O)n1 [NCL202],Growth
3,Nc1nc(NN=Cc2cccc3ccccc23)cc(NN=Cc2cccc3ccccc23)n1 [NCL245],Growth
4,COc1ccccc1C=NNC(=N)NN=Cc1ccccc1OC.Cl [NCL028],Growth
5,Cl.N=C(NN=Cc1cnccc1Cl)NN=Cc1cnccc1Cl [NCL175],Growth
6,CC(=NNC(=N)NN=C(C)c1c[nH]c2ccccc12)c1c[nH]c2ccccc12 [NCL268],No growth
7,Cl.N=C(N)NN=Cc1ccc2nsnc2c1 [NCL280],Growth
8,CCCC(=NNC(=N)NN=C(CCC)c1ccc(Cl)cc1)c1ccc(Cl)cc1.Cl [NCL156],Growth
9,Cl.N=C(NN=Cc1ccc(Br)cc1)NN=Cc1ccc(Br)cc1 [NCL134],No growth
10,Cl.N=C(N)NN=Cc1cnc2ccccc2n1 [NCL278],Growth
11,Cl.N=C(NN=C(C(=O)O)c1ccccc1)NN=C(C(=O)O)c1ccccc1 [NCL167],Growth
12,Nc1nc(NN=CCCc2ccccc2)cc(NN=CCCc2ccccc2)n1 [NCL262],Growth
13,CC(C)(C)c1ccc(C=NNc2cc(NN=Cc3ccc(C(C)(C)C)cc3)nc(N)n2)cc1.Cl.Cl [NCL198],Growth
14,Nc1nc(NN=Cc2ccc(C(F)(F)F)cc2)cc(NN=Cc2ccc(C(F)(F)F)cc2)n1 [NCL221],Growth
15,COc1ccc(C=NNc2cc(NN=Cc3ccc(OC)cc3)nc(N)n2)cc1 [NCL230],Growth
16,Cl.N=C(NN=Cc1cccc(Br)c1)NN=Cc1cccc(Br)c1 [NCL131],Growth
17,Cl.N=C(NN=Cc1cnc2ccccc2n1)NN=Cc1cnc2ccccc2n1 [NCL147],Growth
18,NC(=NN=Cc1ccc(Cl)cc1)N(N=Cc1ccc(Cl)cc1)C(=O)NCc1ccccc1 [NCL227],Growth
19,Cl.N=C(N)N/N=C/c1cccc2nsnc12 [NCL281],Growth
20,Cc1nc[nH]c1C=NNC(=N)N.Cl [NCL283],Growth
